{"source": "patent US11641856B2", "about": "(SMITH & NEPHEW, INC., priority 2015, dated 2023)"}
{"system": "S. aureus biofilm", "experiment": "In-vitro S. aureus biofilm model, treatment with oils of various polarity", "assay_type": "cell-based", "conditions": "oils with log P within vs outside 0.5 to 2.0"}
{"compound": "O=C(O)c1ccccc1", "note": "[Benzoic Acid]", "antibacterial activity against biofilms (log reduction of bacteria vs. moist control, FIG. 1)": "exhibited some antibacterial activity against biofilms"}
{"compound": "OCc1ccccc1", "note": "[Benzyl Alcohol]", "antibacterial activity against biofilms (log reduction of bacteria vs. moist control, FIG. 1)": "exhibited some antibacterial activity against biofilms"}
{"compound": "CCOC(C)=O", "note": "[Ethyl Acetate]", "antibacterial activity against biofilms (log reduction of bacteria vs. moist control, FIG. 1)": "exhibited some antibacterial activity against biofilms"}
{"compound": "CCOC(=O)c1cc(O)c(O)c(O)c1", "note": "[Ethyl Gallate]", "antibacterial activity against biofilms (log reduction of bacteria vs. moist control, FIG. 1)": "exhibited some antibacterial activity against biofilms"}
{"compound": "CCCCCCCCCCCC(=O)OCC(O)CO", "note": "(centres unmarked) [MONOMULS®, glyceryl monolaurate]", "antibacterial activity against biofilms (log reduction of bacteria vs. moist control, FIG. 1)": "did not exhibit very much antimicrobial activity against biofilms"}
{"compound": "CCCOC(=O)c1cc(O)c(O)c(O)c1", "note": "[Propyl Gallate]", "antibacterial activity against biofilms (log reduction of bacteria vs. moist control, FIG. 1)": "exhibited some antibacterial activity against biofilms"}
{"compound": "Oc1cccc(O)c1", "note": "[Resorcinol]", "antibacterial activity against biofilms (log reduction of bacteria vs. moist control, FIG. 1)": "exhibited some antibacterial activity against biofilms"}
{"compound": "CC(=O)OCC(COC(C)=O)OC(C)=O", "note": "[glyceryl triacetate]", "antibacterial activity against biofilms (log reduction of bacteria vs. moist control, FIG. 1)": "did not exhibit very much antimicrobial activity against biofilms"}
{"compound": "CCCCCCCCCCCCCC(=O)OC(C)C", "note": "[isopropyl myristate]", "antibacterial activity against biofilms (log reduction of bacteria vs. moist control, FIG. 1)": "did not exhibit very much antimicrobial activity against biofilms"}
{"compound": "COC(=O)c1ccccc1", "note": "[methyl benzoate]", "antibacterial activity against biofilms (log reduction of bacteria vs. moist control, FIG. 1)": "did not exhibit very much antimicrobial activity against biofilms"}
{"compound": "CCCCCCCC/C=C\\CCCCCCCC(=O)O", "note": "[oleic acid]", "antibacterial activity against biofilms (log reduction of bacteria vs. moist control, FIG. 1)": "did not exhibit very much antimicrobial activity against biofilms"}
{"compound": "diethyl acetate", "antibacterial activity against biofilms (log reduction of bacteria vs. moist control, FIG. 1)": "did not exhibit very much antimicrobial activity against biofilms"}
{"system": "not given", "experiment": "not given", "conditions": "reference standards with known log P values used for HPLC calibration; cited from earlier work"}
{"compound": "O=C(C=Cc1ccccc1)OCc1ccccc1", "note": "[Benzyl cinnamate]", "log P": 4.06}
{"compound": "CCCCOC(=O)CCCCCCCCC(=O)OCCCC", "note": "[Dibutyl sebacate]", "log P": 6.3}
